From publication PMC8779255, “Determining the Anticancer Activity of Sphingosine Kinase Inhibitors Containing Heteroatoms in Their Tail Structure” (Pharmaceutics, 2022)

What was measured:
Assay type in all cases: cell-based, human
HT29 cells = assay: Mitochondrial outer membrane potential (MOMP) by JC-10 staining; conditions: HT29, 10 and 20 µM, 24 h, vs nontreated control
Method: (§1) To access the mechanism of cell death, mitochondrial outer membrane potential (MOMP) was measured using JC-10 cationic dye. HT29 and HCT116 cells (2.5 × 10^5 cells/well) were seeded in 12-well plates and treated with a test compound for 24 h, collected in 1.5 mL microtubes using trypsin-EDTA, washed with 1× cold PBS, and stained with JC-10 dye prepared in HBSS solution (0.14 M NaCl, 0.005 M KCl, 0.001 M CaCl2, 0.005 M MgSO4. 7H2O, 0.0004 M […], 0.0003 M Na2HPO4-2H2O, 0.0004 M KH2PO4, 0.006 M D-glucose, 0.004 M NaHCO3, 0.002 M HEPES, and 0.02% Pluronic® F-127) for 30 min. Samples were analyzed using MACSQuanta Analyzer 10. Cells with green and red fluorescence were plotted in a dot plot; the ratio of red to green fluorescence was calculated using MACSQuantify^TM version 2.8 software and presented as MOMP of the cells. The experiment was repeated three times (n = 6).

HCT116 cells = assay: as above; conditions: HCT116, 10 and 20 µM, 24 h, vs nontreated control
Method: as §1

ceramide in HCT116 cells = assay: Ceramide ELISA of cell lysate; conditions: HCT116, 20 µM, 24 h
Method: The cellular levels of S1P, sphingosine, and ceramide were detected using an ELISA assay kit (MyBioSource, Inc., San Diego, CA, USA) according to the manufacturer’s instruction. For S1P ELISA, 100 µL cell lysates or standards were added in pre-coated ELISA wells, incubated for 90 min at 37 °C, and treated with 1x biotinylated anti S1P antibody for 1 h. Following treatment of HRP conjugated secondary antibody, the substrate was added and allowed to change the color for 15 min; then, the stop solution was added and absorbance was measured at 450 nm using a Multiskan GO (Thermo Scientific, Waltham, MA, USA) microplate spectrophotometer. […] A stop solution (50 µL) was added to each well, and optical density was measured at 450 nm using a microplate reader. […] After incubation, 50 µL substrate A and B was added to the plate and incubated at 37 °C for 20 min; a stop solution (50 µL) was added to each well and optical density was determined at 450 nm using a microplate reader. The concentration of S1P, sphingosine, and ceramide were calculated as ng/mL using respective standard curves constructed by Skanlt microplate reader software 5.0 (Thermo Scientific, Waltham, MA, USA).

SK1 in HCT116 cells = assay: Western blotting of SK1 protein expression; conditions: HCT116, 10 and 20 µM, 24 h, vs control cells
Method: The cell lysate was prepared after successive treatment using mammalian protein extraction buffer (Organic buffer + 10 mM NaCl + detergent pH 7.5) mixed with 1% protease/phosphatase inhibitor cocktail; protein was quantified with BCA assay, boiled at 95 °C for 10 min by adding sample loading buffer, separated using SDS-PAGE, and transferred into methanol-activated PVDF membrane. Primary antibodies were probed overnight in PVDF membrane at 4 °C and […] with subsequent HRP anti-mouse and anti-rabbit secondary antibodies at room temperature. Then, membranes were washed with TBST buffer, and images were detected by Amersham Imager 680 (GE Healthcare; Leiden, WZ, The Netherlands) using ECL solution. Band intensities were analyzed and quantified using Image J software (version 1.53i).

CCCCCCCOc1ccc(CCN2CCN(CCO)CC2)cc1 [Compound 10, 2-(4-(4-(Heptyloxy)phenethyl)piperazin-1-yl)ethanol]
JC-10 dye red to green fluorescence ratio (MOMP) (HT29 cells): significantly reduced | JC-10 dye red to green fluorescence ratio (MOMP) (HCT116 cells): significantly reduced | ceramide level (ceramide in HCT116 cells): increased | SK1 protein expression level (SK1 in HCT116 cells): does not affect
